Data from patent US20200216439A1, “HETERO-1,5,6,7-TETRAHYDRO-4H-INDOL-4-ONES” (BAYER PHARMA AKTIENGESELLSCHAFT, priority 2015, published 2020).

These compounds were tested against T1, catalytic domain of human Bub1 (amino acids 704-1085) (Homo sapiens, UniProt O43683) (assay: Bub1 kinase assay (TR-FRET)). Conditions: TR-FRET; ATP 10 μM, peptide substrate 1 μM; 60 min at 22° C.; average or median if tested more than once; read-out: Inhibition of Bub1 kinase IC50.
T1 construct: catalytic domain of human Bub1 (amino acids 704-1085); His6 (N); made in house; host or cells: Hi5 insect cells
T1 sequence (O43683 704-1085): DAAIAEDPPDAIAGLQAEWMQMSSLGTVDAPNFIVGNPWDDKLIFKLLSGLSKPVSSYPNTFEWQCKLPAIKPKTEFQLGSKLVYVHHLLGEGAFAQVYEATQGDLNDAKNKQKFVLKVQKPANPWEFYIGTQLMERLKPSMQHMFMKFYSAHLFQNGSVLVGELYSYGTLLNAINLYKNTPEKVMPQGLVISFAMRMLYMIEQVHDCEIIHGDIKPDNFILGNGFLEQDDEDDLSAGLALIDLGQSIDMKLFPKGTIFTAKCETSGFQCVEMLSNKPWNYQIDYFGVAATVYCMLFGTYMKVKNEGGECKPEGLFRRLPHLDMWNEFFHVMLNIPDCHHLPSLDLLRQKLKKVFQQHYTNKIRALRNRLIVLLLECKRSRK
Format: biochemical
Text: Bub1-inhibitory activities of compounds described in the present invention were quantified using a time-resolved fluorescence energy transfer (TR-FRET) kinase assay which measures phosphorylation of the synthetic peptide Biotin-Ahx-VLLPKKSFAEPG (C-terminus in amide form), purchased from e.g. Biosyntan (Berlin, Germany) by the (recombinant) catalytic domain of human Bub1 (amino acids 704-1085), expressed in Hi5 insect cells with an N-terminal His6-tag and purified by affinity—(Ni-NTA) and size exclusion chromatography.
In a typical assay 11 different concentrations of each compound (0.1 nM, 0.33 nM, 1.1 nM, 3.8 nM, 13 nM, 44 nM, 0.15 μM, 0.51 μM, 1.7 μM, 5.9 μM and 20 μM) were tested in duplicate within the same microtiter plate. To this end, 100-fold concentrated compound solutions (in DMSO) were previously prepared by serial dilution (1:3.4) of 2 mM stocks in a clear low volume 384-well source microtiter plate (Greiner Bio-One, Frickenhausen, Germany), from which 50 nl of compounds were transferred into a black low volume test microtiter plate from the same supplier. Subsequently, 2 μL of Bub1 (the final concentration of Bub1 was adjusted depending on the activity of the enzyme lot in order to be within the linear dynamic range of the assay: typically ˜200 ng/mL were used) in aqueous assay buffer [50 mM Tris/HCl pH 7.5, 10 mM magnesium chloride (MgCl2), 200 mM potassium chloride (KCl), 1.0 mM dithiothreitol (DTT), 0.1 mM sodium ortho-vanadate, 1% (v/v) glycerol, 0.01% (w/v) bovine serum albumine (BSA), 0.005% (v/v) Trition X-100 (Sigma), 1× Complete EDTA-free protease inhibitor mixture (Roche)] were added to the compounds in the test plate and the mixture was incubated for 15 min at 22° C. to allow pre-equilibration of the putative enzyme-inhibitor complexes before the start of the kinase reaction, which was initiated by the addition of 3 μL 1.67-fold concentrated solution (in assay buffer) of adenosine-tri-phosphate (ATP, 10 μM final concentration) and peptide substrate (1 μM final concentration). The resulting mixture (5 μL final volume) was incubated at 22° C. during 60 min., and the reaction was stopped by the addition of 5 μL of an aqueous EDTA-solution (50 mM EDTA, in 100 mM HEPES pH 7.5 and 0.2% (w/v) bovine serum albumin) which also contained the TR-FRET detection reagents (0.2 μM streptavidin-XL665 [Cisbio Bioassays, Codolet, France] and 1 nM anti-phospho-Serine antibody [Merck Millipore, cat. #35-002] and 0.4 nM LANCE EU-W1024 labeled anti-mouse IgG antibody [Perkin-Elmer, product no. AD0077, alternatively a Terbium-cryptate-labeled anti-mouse IgG antibody from Cisbio Bioassays can be used]). The stopped reaction mixture was further incubated 1 h at 22° C. in order to allow the formation of complexes between peptides and detection reagents. Subsequently, the amount of product was evaluated by measurement of the resonance energy transfer from the Eu-chelate-antibody complex recognizing the Phosphoserine residue to the streptavidin-XL665 bound to the biotin moiety of the peptide. To this end, the fluorescence emissions at 620 nm and 665 nm after excitation at 330-350 nm were measured in a TR-FRET plate reader, e.g. a Rubystar or Pherastar (both from BMG Labtechnologies, Offenburg, Germany) or a Viewlux (Perkin-Elmer) and the ratio of the emissions (665 nm/[…]) was taken as indicator for the amount of phosphorylated substrate. The data were normalised using two sets of control wells for high—(=enzyme reaction without inhibitor=0%=Minimum inhibition) and low—(=all assay components without enzyme=100%=Maximum inhibition) Bub1 activity. IC50 values were calculated by fitting the normalized inhibition data to a 4-parameter logistic equation (Minimum, Maximum, IC50, Hill; Y=Max+(Min−Max)/(1+(X/IC50)Hill)).

| IC50 [nM] | SMILES |
| --- | --- |
| 10 | CC(C)(C)OC(=O)N1CC(=O)c2c([nH]c(-c3ccncc3)c2Nc2ccccc2)C1 [Example 3, tert-Butyl 4-oxo-3-(phenylamino)-2-(pyridin-4-yl)-1,4,5,7-tetrahydro-6H-pyrrolo[2,3-c]pyridine-6-carboxylate] |
| 19 | O=C1CSCc2[nH]c(-c3ccncc3)c(Nc3ccccc3)c21 [Example 4, 3-(phenylamino)-2-(pyridin-4-yl)-1,7-dihydrothiopyrano[3,4-b]pyrrol-4(5H)-one] |
| 5 | O=C1CN(C(=O)C2CC2)Cc2[nH]c(-c3ccncc3)c(Nc3ccccc3)c21 [Example 5, 6-(Cyclopropylcarbonyl)-3-(phenylamino)-2-(pyridin-4-yl)-1,5,6,7-tetrahydro-4H-pyrrolo[2,3-c]pyridin-4-one] |
| 42 | O=C1COCc2[nH]c(-c3ccncc3)c(Nc3ccccc3)c21 [Example 6, 3-(phenylamino)-2-(pyridin-4-yl)-1,7-dihydropyrano[3,4-b]pyrrol-4(5H)-one] |
| 4 | CC(=O)N1CC(=O)c2c([nH]c(-c3ccncc3)c2Nc2ccccc2)C1 [Example 7, 6-Acetyl-3-(phenylamino)-2-(pyridin-4-yl)-1,5,6,7-tetrahydro-4H-pyrrolo[2,3-c]pyridin-4-one] |
| 4 | CCC(=O)N1CC(=O)c2c([nH]c(-c3ccncc3)c2Nc2ccccc2)C1 [Example 8, 3-(phenylamino)-6-propanoyl-2-(pyridin-4-yl)-1,5,6,7-tetrahydro-4H-pyrrolo[2,3-c]pyridin-4-one] |
| 4 | CC(C)(C)C(=O)N1CC(=O)c2c([nH]c(-c3ccncc3)c2Nc2ccccc2)C1 [Example 9, 6-(2,2-Dimethylpropanoyl)-3-(phenylamino)-2-(pyridin-4-yl)-1,5,6,7-tetrahydro-4H-pyrrolo[2,3-c]pyridin-4-one] |
| 6 | CCNC(=O)N1CC(=O)c2c([nH]c(-c3ccncc3)c2Nc2ccccc2)C1 [Example 10, N-Ethyl-4-oxo-3-(phenylamino)-2-(pyridin-4-yl)-1,4,5,7-tetrahydro-6H-pyrrolo[2,3-c]pyridine-6-carboxamide] |
| 8 | CC(C)(C)OC(=O)N1CC(=O)c2c([nH]c(-c3ccncc3F)c2Nc2ccccc2)C1 [Example 11, tert-Butyl 2-(3-fluoropyridin-4-yl)-4-oxo-3-(phenylamino)-1,4,5,7-tetrahydro-6H-pyrrolo[2,3-c]pyridine-6-carboxylate] |
| 102 | Cc1nccc(-c2[nH]c3c(c2Nc2ccccc2)C(=O)CN(C(=O)OC(C)(C)C)C3)n1 [Example 12, tert-Butyl 2-(2-methylpyrimidin-4-yl)-4-oxo-3-(phenylamino)-1,4,5,7-tetrahydro-6H-pyrrolo[2,3-c]pyridine-6-carboxylate] |
| 40 | CC(C)(C)OC(=O)N1CC(=O)c2c([nH]c(-c3ccnc(N)c3)c2Nc2ccccc2)C1 [Example 13, tert-Butyl 2-(2-aminopyridin-4-yl)-4-oxo-3-(phenylamino)-1,4,5,7-tetrahydro-6H-pyrrolo[2,3-c]pyridine-6-carboxylate] |
| 47 | O=C1CNCc2[nH]c(-c3ccncc3)c(Nc3ccccc3)c21 [Example 14] |
| 1200 | Cc1nccc(-c2[nH]c3c(c2Nc2ccccc2)C(=O)COC3)n1 [Example 15, 2-(2-Methylpyrimidin-4-yl)-3-(phenylamino)-1,7-dihydropyrano[3,4-b]pyrrol-4(5H)-one] |
| 949 | Cc1nccc(-c2[nH]c3c(c2Nc2ccccc2)C(=O)CNC3)n1 [Example 16, 2-(2-Methylpyrimidin-4-yl)-3-(phenylamino)-1,5,6,7-tetrahydro-4H-pyrrolo[2,3-c]pyridin-4-one] |
| 6 | CC(C)C(=O)N1CC(=O)c2c([nH]c(-c3ccncc3)c2Nc2ccccc2)C1 [Example 17] |
| 6 | COC(=O)N1CC(=O)c2c([nH]c(-c3ccncc3)c2Nc2ccccc2)C1 [Example 18, Methyl 4-oxo-3-(phenylamino)-2-(pyridin-4-yl)-1,4,5,7-tetrahydro-6H-pyrrolo[2,3-c]pyridine-6-carboxylate] |
